Source: patent US9249145B2, “Heterocyclic derivatives of pyrazol-4-yl-pyrrolo[2,3-d]pyrimidines as janus kinase inhibitors” (Incyte Holdings Corporation, priority 2009, dated 2016)
Structures can show the parent of a compound that is named as a salt.

Assays:
[1] = molecular target: T1, human JAK1 (a.a. 837-1142) (Homo sapiens, UniProt P23458); experiment: In vitro JAK kinase assay (HTRF, phosphorylation of biotinylated peptide), JAK1; format: biochemical; settings: 1 mM ATP; Examples 12-91; read-out: JAK1 IC50 (nM) @ 1 mM ATP
T1 construct: The catalytic domains of human JAK1 (a.a. 837-1142); His tag (N); made in house; host or cells: insect cells (baculovirus)
Method in brief: (§1)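 His-tagged catalytic domains expressed in baculovirus/insect cells; biotinylated peptide (500 nM) phosphorylation in 50 mM Tris pH 7.8, 100 mM NaCl, 5 mM DTT, 0.01% BSA, 1 h room temperature. ATP at Km (JAK1 90 μM, JAK2 30 μM) or 1 mM. EDTA stop, Eu-Py20/SA-APC HTRF read; IC50.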

Jak2 (a.a. 828-1132) = molecular target: T2, Jak2 (a.a. 828-1132) (Homo sapiens, UniProt O60674); experiment: In vitro JAK kinase assay (HTRF, phosphorylation of biotinylated peptide), JAK2; format: biochemical; settings: 1 mM ATP; Examples 12-91; read-out: JAK2 IC50 (nM) @ 1 mM ATP
T2 construct: Jak2 (a.a. 828-1132); His tag (N); made in house; host or cells: insect cells (baculovirus)
Method in brief: as §1

T2 sequence (O60674 828-1132): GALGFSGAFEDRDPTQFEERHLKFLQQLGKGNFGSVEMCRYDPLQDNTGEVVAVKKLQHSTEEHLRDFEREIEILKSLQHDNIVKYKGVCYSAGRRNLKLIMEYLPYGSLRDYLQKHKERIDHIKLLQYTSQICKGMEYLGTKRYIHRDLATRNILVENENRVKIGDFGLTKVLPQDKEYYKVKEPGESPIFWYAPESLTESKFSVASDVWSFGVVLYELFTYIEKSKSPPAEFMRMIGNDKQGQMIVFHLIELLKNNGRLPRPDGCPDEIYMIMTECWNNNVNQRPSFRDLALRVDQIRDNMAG
T1 sequence (P23458 849-1154): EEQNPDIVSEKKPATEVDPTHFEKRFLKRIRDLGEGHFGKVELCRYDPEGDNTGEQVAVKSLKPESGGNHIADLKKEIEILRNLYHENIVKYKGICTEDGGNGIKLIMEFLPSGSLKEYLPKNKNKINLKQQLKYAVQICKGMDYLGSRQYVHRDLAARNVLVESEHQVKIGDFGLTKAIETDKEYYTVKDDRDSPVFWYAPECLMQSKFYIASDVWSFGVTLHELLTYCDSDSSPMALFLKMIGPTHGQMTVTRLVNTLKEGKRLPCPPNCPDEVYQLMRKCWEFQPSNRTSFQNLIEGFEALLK

IC50 [1]	IC50 (Jak2 (a.a. 828-1132))	Compound
< 10 nM	< 10 nM	N#CCC(CN1CCN(C(=O)c2cccc(F)c2F)CC1)n1cc(-c2ncnc3[nH]ccc23)cn1 (stereo not drawn) [Example 33, 3-(4-(7H-pyrrolo[2,3-d]pyrimidin-4-yl)-1H-pyrazol-1-yl)-4-(4-(2,3-difluorobenzoyl)piperazin-1-yl)butanenitrile]
< 10 nM	10 to 50 nM	COc1ccc(C(=O)N2CCN(CC(CC#N)n3cc(-c4ncnc5[nH]ccc45)cn3)CC2)c(F)c1F (stereo not drawn) [Example 34, 3-(4-(7H-pyrrolo[2,3-d]pyrimidin-4-yl)-1H-pyrazol-1-yl)-4-(4-(2,3-difluoro-4-methoxybenzoyl)piperazin-1-yl)butanenitrile]
< 10 nM	< 10 nM	N#CCC(CN1CCN(C(=O)c2c(O)cccc2F)CC1)n1cc(-c2ncnc3[nH]ccc23)cn1 (stereo not drawn) [Example 35, 3-(4-(7H-pyrrolo[2,3-d]pyrimidin-4-yl)-1H-pyrazol-1-yl)-4-(4-(2-fluoro-6-hydroxybenzoyl)piperazin-1-yl)butanenitrile]
< 10 nM	10 to 50 nM	N#CCC(CN1CCN(C(=O)c2ccc(F)cc2)CC1)n1cc(-c2ncnc3[nH]ccc23)cn1 (stereo not drawn) [Example 36, 3-(4-(7H-pyrrolo[2,3-d]pyrimidin-4-yl)-1H-pyrazol-1-yl)-4-(4-(4-fluorobenzoyl)piperazin-1-yl)butanenitrile]
< 10 nM	10 to 50 nM	Cc1cc(C(=O)N2CCN(CC(CC#N)n3cc(-c4ncnc5[nH]ccc45)cn3)CC2)ccc1F (stereo not drawn) [Example 37, 3-(4-(7H-pyrrolo[2,3-d]pyrimidin-4-yl)-1H-pyrazol-1-yl)-4-(4-(4-fluoro-3-methylbenzoyl)piperazin-1-yl)butanenitrile]
< 10 nM	10 to 50 nM	N#CCC(CN1CCN(C(=O)c2ccc(Cl)cn2)CC1)n1cc(-c2ncnc3[nH]ccc23)cn1 (stereo not drawn) [Example 38, 3-(4-(7H-pyrrolo[2,3-d]pyrimidin-4-yl)-1H-pyrazol-1-yl)-4-(4-(5-chloropicolinoyl)piperazin-1-yl)butanenitrile]
< 10 nM	10 to 50 nM	N#CCC(CN1CCN(C(=O)c2ccc(F)cc2Cl)CC1)n1cc(-c2ncnc3[nH]ccc23)cn1 (stereo not drawn) [Example 39, 3-(4-(7H-pyrrolo[2,3-d]pyrimidin-4-yl)-1H-pyrazol-1-yl)-4-(4-(2-chloro-4-fluorobenzoyl)piperazin-1-yl)butanenitrile]
< 10 nM	10 to 50 nM	N#CCC(CN1CCN(C(=O)c2ncc(F)cc2F)CC1)n1cc(-c2ncnc3[nH]ccc23)cn1 (stereo not drawn) [Example 40, 3-(4-(7H-pyrrolo[2,3-d]pyrimidin-4-yl)-1H-pyrazol-1-yl)-4-(4-(3,5-difluoropicolinoyl)piperazin-1-yl)butanenitrile]
< 10 nM	10 to 50 nM	N#CCC(CN1CCN(C(=O)c2cc(OC(F)(F)F)ccc2F)CC1)n1cc(-c2ncnc3[nH]ccc23)cn1 (stereo not drawn) [Example 41, 3-(4-(7H-pyrrolo[2,3-d]pyrimidin-4-yl)-1H-pyrazol-1-yl)-4-(4-(2-fluoro-5-(trifluoromethoxy)benzoyl)piperazin-1-yl)butanenitrile]
< 10 nM	10 to 50 nM	N#CCC(CN1CCN(C(=O)c2cccs2)CC1)n1cc(-c2ncnc3[nH]ccc23)cn1 (stereo not drawn) [Example 42, 3-(4-(7H-pyrrolo[2,3-d]pyrimidin-4-yl)-1H-pyrazol-1-yl)-4-(4-(thiophene-2-carbonyl)piperazin-1-yl)butanenitrile]
< 10 nM	10 to 50 nM	COc1cc(C(=O)N2CCN(CC(CC#N)n3cc(-c4ncnc5[nH]ccc45)cn3)CC2)ccc1F (stereo not drawn) [Example 43, 3-(4-(7H-pyrrolo[2,3-d]pyrimidin-4-yl)-1H-pyrazol-1-yl)-4-(4-(4-fluoro-3-methoxybenzoyl)piperazin-1-yl)butanenitrile]
< 10 nM	10 to 50 nM	COc1ccc(C(=O)N2CCN(CC(CC#N)n3cc(-c4ncnc5[nH]ccc45)cn3)CC2)cc1Cl (stereo not drawn) [Example 44, 3-(4-(7H-pyrrolo[2,3-d]pyrimidin-4-yl)-1H-pyrazol-1-yl)-4-(4-(3-chloro-4-methoxybenzoyl)piperazin-1-yl)butanenitrile trifluoroacetate salt]
< 10 nM	10 to 50 nM	N#CCC(CN1CCN(C(=O)c2ccc(C(F)(F)F)cc2F)CC1)n1cc(-c2ncnc3[nH]ccc23)cn1 (stereo not drawn) [Example 45, 3-(4-(7H-pyrrolo[2,3-d]pyrimidin-4-yl)-1H-pyrazol-1-yl)-4-(4-(2-fluoro-4-(trifluoromethyl)benzoyl)piperazin-1-yl)butanenitrile trifluoroacetate salt]
< 10 nM	10 to 50 nM	N#CCC(CN1CCN(C(=O)c2cc(F)cc(Cl)c2)CC1)n1cc(-c2ncnc3[nH]ccc23)cn1 (stereo not drawn) [Example 46, 3-(4-(7H-pyrrolo[2,3-d]pyrimidin-4-yl)-1H-pyrazol-1-yl)-4-(4-(3-chloro-5-fluorobenzoyl)piperazin-1-yl)butanenitrile trifluoroacetate salt]
< 10 nM	10 to 50 nM	Cc1cc(F)ccc1C(=O)N1CCN(CC(CC#N)n2cc(-c3ncnc4[nH]ccc34)cn2)CC1 (stereo not drawn) [Example 47, 3-(4-(7H-pyrrolo[2,3-d]pyrimidin-4-yl)-1H-pyrazol-1-yl)-4-(4-(4-fluoro-2-methylbenzoyl)piperazin-1-yl)butanenitrile]
< 10 nM	10 to 50 nM	N#CCC(CN1CCN(C(=O)c2ccc(F)c(F)c2F)CC1)n1cc(-c2ncnc3[nH]ccc23)cn1 (stereo not drawn) [Example 48, 3-(4-(7H-pyrrolo[2,3-d]pyrimidin-4-yl)-1H-pyrazol-1-yl)-4-(4-(2,3,4-trifluorobenzoyl)piperazin-1-yl)butanenitrile phosphate salt]
10 to 50 nM	> 100 nM	N#CCC(CN1CCN(C(=O)c2ccc(F)c(OC(F)(F)F)c2)CC1)n1cc(-c2ncnc3[nH]ccc23)cn1 (stereo not drawn) [Example 49, 3-(4-(7H-pyrrolo[2,3-d]pyrimidin-4-yl)-1H-pyrazol-1-yl)-4-(4,-(4-fluoro-3-(trifluoromethoxy)benzoyl)piperazin-1-yl)butanenitrile]
10 to 50 nM	10 to 50 nM	N#CCC(CN1CCN(C(=O)c2ccc(F)c(F)c2)CC1)n1cc(-c2ncnc3[nH]ccc23)cn1 (stereo not drawn) [Example 50, 3-(4-(7H-pyrrolo[2,3-d]pyrimidin-4-yl)-1H-pyrazol-1-yl)-4-(4-(3,4-difluorobenzoyl)piperazin-1-yl)butanenitrile]
10 to 50 nM	10 to 50 nM	N#CCC(CN1CCN(C(=O)c2cccc(OC(F)(F)F)c2F)CC1)n1cc(-c2ncnc3[nH]ccc23)cn1 (stereo not drawn) [Example 51, 3-(4-(7H-pyrrolo[2,3-d]pyrimidin-4-yl)1H-pyrazol-1-yl)-4-(4-(2-fluoro-3-(trifluoromethoxy)benzoyl)piperazin-1-yl)butanenitrile]
10 to 50 nM	50 to 100 nM	COc1cscc1C(=O)N1CCN(CC(CC#N)n2cc(-c3ncnc4[nH]ccc34)cn2)CC1 (stereo not drawn) [Example 52, 3-(4-(7H-pyrrolo[2,3-d]pyrimidin-4-yl)-1H-pyrazol-1-yl)-4-(4-(4-methoxythiophene-3-carbonyl)piperazin-1-yl)butanenitrile]
10 to 50 nM	50 to 100 nM	N#CCC(CN1CCN(C(=O)c2cc(Cl)cc(OC(F)(F)F)c2)CC1)n1cc(-c2ncnc3[nH]ccc23)cn1 (stereo not drawn) [Example 53, 3-(4-(7H-pyrrolo[2,3-d]pyrimidin-4-yl)-1H-pyrazol-1-yl)-4-(4-(3-chloro-5-(trifluoromethoxy)benzoyl)piperazin-1-yl)butanenitrile]
10 to 50 nM	50 to 100 nM	N#CCC(CN1CCN(C(=O)c2ccc(O)c(Cl)c2)CC1)n1cc(-c2ncnc3[nH]ccc23)cn1 (stereo not drawn) [Example 54, 3-(4-(7H-pyrrolo[2,3-d]pyrimidin-4-yl)-1H-pyrazol-1-yl)-4-(4-(3-chloro-4-hydroxybenzoyl)piperazin-1-yl)butanenitrile trifluoroacetate salt]
10 to 50 nM	50 to 100 nM	COc1c(F)cc(C(=O)N2CCN(CC(CC#N)n3cc(-c4ncnc5[nH]ccc45)cn3)CC2)cc1F (stereo not drawn) [Example 55, 3-(4-(7H-pyrrolo[2,3-d]pyrimidin-4-yl)-1H-pyrazol-1-yl)-4-(4-(3,5-difluoro-4-methoxybenzoyl)piperazin-1-yl)butanenitrile]
10 to 50 nM	> 100 nM	N#CCC(CN1CCN(C(=O)c2ccc(C(F)(F)F)c(F)c2)CC1)n1cc(-c2ncnc3[nH]ccc23)cn1 (stereo not drawn) [Example 56, 3-(4-(7H-pyrrolo[2,3-d]pyrimidin-4-yl)-1H-pyrazol-1-yl)-4-(4-(3-fluoro-4-(trifluoromethyl)benzoyl)piperazin-1-yl)butanenitrile]
10 to 50 nM	> 100 nM	N#CCC(CN1CCN(C(=O)c2ccc(F)c(C(F)(F)F)c2)CC1)n1cc(-c2ncnc3[nH]ccc23)cn1 (stereo not drawn) [Example 57, 3-(4-(7H-pyrrolo[2,3-d]pyrimidin-4-yl)-1H-pyrazol-1-yl)-4-(4-(4-fluoro-3-(trifluoromethyl)benzoyl)piperazin-1-yl)butanenitrile]
10 to 50 nM	> 100 nM	N#CCC(CN1CCN(C(=O)c2ccc(F)cc2C(F)(F)F)CC1)n1cc(-c2ncnc3[nH]ccc23)cn1 (stereo not drawn) [Example 59]

Compound	IC50 [1]	IC50 (Jak2 (a.a. 828-1132))
N#CCC(CN1CCN(C(=O)c2ccccn2)CC1)n1cc(-c2ncnc3[nH]ccc23)cn1 (stereo not drawn) [Example 58, 3-(4-(7H-pyrrolo[2,3-d]pyrimidin-4-yl)-1H-pyrazol-1-yl)-4-(4-picolinoylpiperazin-1-yl)butanenitrile]	10 to 50 nM	> 100 nM
